Measured values reported in PubChem BioAssay AID330 (DTP/NCI, 2004).
Values joined by “and” are separate entries in the source; they are usually repeats but may differ in a detail not shown here. Equal values may be shown once. Toxic doses and inconclusive results are not listed. Peptide text beside a SMILES is read from it. * marks the point of attachment. Boc = CC(C)(C)OC(=O)*; NHNH2 = NN*

System: P388 leukemia ip, CD2F1 mice, survival T/C
Assay: NCI In Vivo Anticancer Drug Screen. Data for tumor model P388 Leukemia (intraperitoneal) in CD2F1 (CDF1) mice
Details: endpoint: median survival time, higher = longer survival
Outline: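 Mice carrying the transplanted tumor received test compound or vehicle. Survival was recorded in each group, and the value is the treated-group measurement divided by that of the vehicle-treated control group.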

[1] = dose: 25.0 mg/kg/injection, schedule: Q01DX005 (ip), vehicle: saline with Tween-80

`CO[C@@]12[C@@H]3N[C@@H]3CN1C1=C(C(=O)C(N3CCCC3)=C(C)C1=O)[C@@H]2COC(N)=O` was tested, and the T/C (dose: 0.78 mg/kg/injection, schedule: Q01DX005 (ip), vehicle: saline with Tween-80) was 193 % of control, the T/C (dose: 3.75 mg/kg/injection, schedule: Q01DX005 (ip), vehicle: saline with Tween-80) was 186 % of control and the T/C (dose: 10.4 mg/kg/injection, schedule: Q01DX005 (ip), vehicle: saline with Tween-80) was 214 % of control. For the same molecule, the T/C (dose: 17.4 mg/kg/injection, schedule: Q01DX005 (ip), vehicle: saline with Tween-80) was 214 % of control and the T/C [1] was 87 % of control.

With `O=C1N(CO)C2C(N1CO)N(CO)C(=O)N2CO` (stereo not given) the T/C (dose: 100.0 mg/kg/injection, schedule: Q04DX003 (ip), vehicle: saline) was 109 % of control, the T/C (dose: 200.0 mg/kg/injection, schedule: Q04DX003 (ip), vehicle: saline) was 118 % of control and the T/C (dose: 400.0 mg/kg/injection, schedule: Q04DX003 (ip), vehicle: saline) was 118 % of control.

For `CC(=O)OCNCOC(C)=O`, the T/C (dose: 100.0 mg/kg/injection, schedule: Q01DX009 (ip), vehicle: saline) was 106 % of control, the T/C (dose: 200.0 mg/kg/injection, schedule: Q01DX009 (ip), vehicle: saline) was 108 % of control and the T/C (dose: 400.0 mg/kg/injection, schedule: Q01DX009 (ip), vehicle: saline) was 106 % of control.

`Cc1ccc(N2C(=O)N(c3ccc(C)cc3)C3(Sc4ccccc4N3C)C2=O)cc1` (stereo not given) was tested, and the T/C (dose: 25.0 mg/kg/injection, schedule: Q04DX002 (ip), vehicle: saline with Tween-80) was 95 % of control, the T/C (dose: 50.0 mg/kg/injection, schedule: Q04DX002 (ip), vehicle: saline with Tween-80) was 92 % of control and the T/C (dose: 100.0 mg/kg/injection, schedule: Q04DX002 (ip), vehicle: saline with Tween-80) was 89 % of control.

With `O=C(/C(=C\c1ccccc1)c1ccccc1)c1ccccc1` the T/C (dose: 50.0 mg/kg/injection, schedule: Q01DX009 (ip), vehicle: saline with Tween-80) was 92 % of control, the T/C (dose: 100.0 mg/kg/injection, schedule: Q01DX009 (ip), vehicle: saline with Tween-80) was 88 % of control and the T/C (dose: 200.0 mg/kg/injection, schedule: Q01DX009 (ip), vehicle: saline with Tween-80) was 93 % of control. For the same molecule, the T/C (dose: 400.0 mg/kg/injection, schedule: Q01DX009 (ip), vehicle: saline with Tween-80) was 95 % of control.

With `c1ccc(C2NCCc3ccccc32)cc1` (stereo not given) the T/C (dose: 50.0 mg/kg/injection, schedule: Q01DX005 (ip), vehicle: Klucel (hydroxypropylcellulose) (HPC)) was 97 % of control, the T/C (dose: 100.0 mg/kg/injection, schedule: Q01DX005 (ip), vehicle: Klucel (hydroxypropylcellulose) (HPC)) was 105 % of control and the T/C (dose: 200.0 mg/kg/injection, schedule: Q01DX005 (ip), vehicle: Klucel (hydroxypropylcellulose) (HPC)) was 100 % of control.

`CN1CCC(/C(=N/O)c2ccccc2)(c2ccccc2)CC1` was tested, and the T/C (dose: 50.0 mg/kg/injection, schedule: Q01DX005 (ip), vehicle: Klucel + Tween-80) was 98 % of control, the T/C (dose: 100.0 mg/kg/injection, schedule: Q01DX005 (ip), vehicle: Klucel + Tween-80) was 91 % of control and the T/C (dose: 200.0 mg/kg/injection, schedule: Q01DX005 (ip), vehicle: Klucel + Tween-80) was 91 % of control.

With `CC(C)(C)OC(=O)NC(Cc1c[nH]c2ccccc12)C(=O)NC(CS)C(=O)NN` (stereo not drawn) (Boc-Trp-Cys-NHNH2; configuration not given here) the T/C (dose: 12.5 mg/kg/injection, schedule: Q01DX009 (ip), vehicle: other) was 90 % of control, the T/C (dose: 25.0 mg/kg/injection, schedule: Q01DX009 (ip), vehicle: other) was 94 % of control and the T/C (dose: 50.0 mg/kg/injection, schedule: Q01DX009 (ip), vehicle: other) was 88 % of control. The T/C (dose: 100.0 mg/kg/injection, schedule: Q01DX009 (ip), vehicle: other) was 98 % of control and the T/C (dose: 200.0 mg/kg/injection, schedule: Q01DX009 (ip), vehicle: other) was 94 % of control.

For `COc1cc(NCC2COc3c(ccc(OC)c3OC)C2=O)c([N+](=O)[O-])cc1OC` (stereo not given), the T/C (dose: 60.0 mg/kg/injection, schedule: Q01DX005 (ip), vehicle: Klucel (hydroxypropylcellulose) (HPC)) was 90 % of control, the T/C (dose: 120.0 mg/kg/injection, schedule: Q01DX005 (ip), vehicle: Klucel (hydroxypropylcellulose) (HPC)) was 92 % of control and the T/C (dose: 240.0 mg/kg/injection, schedule: Q01DX005 (ip), vehicle: Klucel (hydroxypropylcellulose) (HPC)) was 86 % of control.

In the case of `COc1ccc2nc(N/N=C/c3ccccn3)cc(C)c2c1`, the T/C [1] is reported as 103 % of control, the T/C (dose: 50.0 mg/kg/injection, schedule: Q01DX005 (ip), vehicle: saline with Tween-80) is reported as 110 % of control and 112 % of control and the T/C (dose: 100.0 mg/kg/injection, schedule: Q01DX005 (ip), vehicle: saline with Tween-80) is reported as 103 % of control.
